Measured values: patent publication US9290536B2, “C4 monomethyl triterpenoid derivatives and methods of use thereof” (Reata Pharmaceuticals, Inc., priority 2011, dated 2016)

Columns and labels:
NQO1-ARE = NQO1-ARE luciferase reporter assay in HuH7 cells (Nrf2 transcriptional activity); format: cell-based; settings: Homo sapiens, Huh-7, 62.5 nM compound, 18 h, Firefly normalized to Renilla, over DMSO vehicle control
Description: NQO1-ARE Luciferase Reporter Assay.
This assay allows for quantitative assessment of the endogenous activity of the Nrf2 transcription factor in cultured mammalian cells. Expression of Firefly luciferase from NQO1-ARE luciferase reporter plasmid is controlled by binding of Nrf2 to a specific enhancer sequence corresponding to the antioxidant response element (ARE) that was identified in the promoter region of the human NADPH:quinone oxidoreductase 1 (NQO1) gene (Xie et al., 1995). The plasmid was constructed by inserting a sequence:
encompassing the human NQO1-ARE into the pLuc-MCS vector using HindIII/XhoI cloning sites (GenScript Corp., Piscataway, N.J.). The assay is performed in HuH7 cells maintained in DMEM (Invitrogen) supplemented with 10% FBS and 100 U/ml (each) of penicillin and streptomycin. For the assay, cells are plated in 96-well plates at 17,000 cells per well. Twenty four hours later, the cells are co-transfected with 50 ng each of NQO1-ARE reporter plasmid and pRL-TK plasmid using Lipofectamine 2000 transfection reagent (Invitrogen). pRL-TK plasmid constitutively expresses Renilla luciferase and is used as an internal control for normalization of transfection levels. Thirty hours after transfection, the cells are treated with compounds (at concentrations ranging from 0 to 1 μM) for eighteen hours. Firefly and Renilla luciferase activity is assayed by Dual-Glo Luciferase Assay (Promega Corp., Madison, Wis.), the luminescence signal is measured on an L-Max II luminometer (Molecular Devices). Firefly luciferase activity is normalized to the Renilla activity, and fold induction over a vehicle control (DMSO) of normalized Firefly activity is calculated. The fold induction at 62.5 nM concentration is used for comparing relative potencies of compounds to induce Nrf2 transcriptional activity. See Xie et al., 1995, which is incorporated herein by reference.

[1] = system: IFNγ-induced NO production in RAW264.7; assay: Suppression of IFNγ-induced NO production in RAW264.7 mouse macrophages (Griess reagent, normalized to WST-1 cell viability); format: cell-based; settings: RAW264.7 cells, 2 h pre-treatment with drug (0-200 nM), then IFNγ for 24 h
Procedure: Nitric Oxide Production and Cell Viability. […] On the next day, cells were pre-treated with DMSO or drug (0-200 nM dose range) for 2 hours, and then treated with recombinant mouse IFNγ (R&D Systems) for 24 hours. Nitric Oxide concentration in media was determined using the Griess reagent system (Promega). Cell viability was determined using WST-1 reagent (Roche). IC50 values were determined based on the suppression of IFNγ induced Nitric Oxide production normalized to cell viability.

Compound	fold induction at 0.0625 µM (NQO1-ARE)	IC50 [1] [nM]
C[C@@H]1C(=O)C(C#N)=C[C@]2(C)C3=CC(=O)[C@@H]4[C@@H]5CC(C)(C)CC[C@]5(C(=O)NCC(F)(F)F)CC[C@@]4(C)[C@]3(C)CC[C@@H]12 [TX63523]	5.6	1
C[C@@H]1C(=O)C(C#N)=C[C@]2(C)C3=CC(=O)[C@@H]4[C@@H]5CC(C)(C)CC[C@]5(C(=O)O)CC[C@@]4(C)[C@]3(C)CC[C@@H]12 [TX63520]	5.3	10.1
Cc1nnc([C@]23CCC(C)(C)C[C@H]2[C@H]2C(=O)C=C4[C@@]5(C)C=C(C#N)C(=O)[C@@H](C)[C@@H]5CC[C@@]4(C)[C@]2(C)CC3)o1 [TX63616]	4.4	0.7
COC(=O)[C@]12CCC(C)(C)C[C@H]1[C@H]1C(=O)C=C3[C@@]4(C)C=C(C#N)C(=O)[C@@H](C)[C@@H]4CC[C@@]3(C)[C@]1(C)CC2 [TX63435]	7.2	1
C[C@@H]1C(=O)C(C#N)=C[C@]2(C)C3=CC(=O)[C@]45OC(=O)[C@@]6(CCC(C)(C)C[C@H]64)CC[C@@]5(C)[C@]3(C)CC[C@@H]12 [TX63555]	6.1	1.4
C[C@@H]1C(=O)C(C#N)=C[C@]2(C)C3=CC(=O)[C@@H]4[C@@H]5CC(C)(C)CC[C@]5(C(=O)n5ccnc5)CC[C@@]4(C)[C@]3(C)CC[C@@H]12 [TX63522]	4.1	0.4
C[C@@H]1C(=O)C(C#N)=C[C@]2(C)C3=CC(=O)[C@@H]4[C@@H]5CC(C)(C)CC[C@]5(CO)CC[C@@]4(C)[C@]3(C)CC[C@@H]12 [TX63545]	7.2	0.7
C[C@@H]1C(=O)C(C#N)=C[C@]2(C)C3=CC(=O)[C@@H]4[C@@H]5CC(C)(C)CC[C@]5(NC(=O)C(C)(F)F)CC[C@@]4(C)[C@]3(C)CC[C@@H]12 [TX63682]	5.7	1.1
COC(=O)[C@]12CCC(C)(C)C[C@H]1[C@H]1C(=O)C=C3[C@@]4(C)C=C(C#N)C(=O)C[C@@H]4CC[C@@]3(C)[C@]1(C)CC2 [TX63614]		11.7
C[C@@H]1C(=O)C(C#N)=C[C@]2(C)[C@H]3CC(=O)[C@@H]4[C@@H]5CC(C)(C)CC[C@]5(C(=O)n5ccnc5)CC[C@@]4(C)[C@]3(C)CC[C@@H]12 [TX63811]		0.3
C[C@@H]1C(=O)C(C#N)=C[C@]2(C)[C@H]3CC(=O)[C@@H]4[C@@H]5CC(C)(C)CC[C@]5(C(=O)NCC(F)(F)F)CC[C@@]4(C)[C@]3(C)CC[C@@H]12 [TX63807]		5.8
COC(=O)[C@]12CCC(C)(C)C[C@H]1[C@H]1C(=O)C[C@@H]3[C@@]4(C)C=C(C#N)C(=O)[C@@H](C)[C@@H]4CC[C@@]3(C)[C@]1(C)CC2 [TX63749]	2.3	3
CCNC(=O)N[C@]12CCC(C)(C)C[C@H]1[C@H]1C(=O)C=C3[C@@]4(C)C=C(C#N)C(=O)[C@@H](C)[C@@H]4CC[C@@]3(C)[C@]1(C)CC2 [TX63826]		4.4
C[C@@H]1C(=O)C(C#N)=C[C@]2(C)[C@H]3CC(=O)[C@@H]4[C@@H]5CC(C)(C)CC[C@]5(C(N)=O)CC[C@@]4(C)[C@]3(C)CC[C@@H]12 [TX63816]		10.2
C[C@@H]1C(=O)C(C#N)=C[C@]2(C)C3=CC(=O)[C@@H]4[C@@H]5CC(C)(C)CC[C@]5(COC(=O)CNC(=O)OC(C)(C)C)CC[C@@]4(C)[C@]3(C)CC[C@@H]12 [TX63716]		3.2
CONC(=O)[C@]12CCC(C)(C)C[C@H]1[C@H]1C(=O)C=C3[C@@]4(C)C=C(C#N)C(=O)[C@@H](C)[C@@H]4CC[C@@]3(C)[C@]1(C)CC2 [TX63882]		1.6
